Like-named read-outs stand apart in the source and are kept apart here.
What was measured:
[1] = target: T1, follicle-stimulating hormone (FSH) receptor (Rattus norvegicus, UniProt P20395); test: Rat granulosa EC50 FSH (Assay B); type: cell-based; conditions: rat granulosa cells
T1 construct: endogenous in cells; host or cells: rat granulosa cells
T1 sequence (P20395 18-692): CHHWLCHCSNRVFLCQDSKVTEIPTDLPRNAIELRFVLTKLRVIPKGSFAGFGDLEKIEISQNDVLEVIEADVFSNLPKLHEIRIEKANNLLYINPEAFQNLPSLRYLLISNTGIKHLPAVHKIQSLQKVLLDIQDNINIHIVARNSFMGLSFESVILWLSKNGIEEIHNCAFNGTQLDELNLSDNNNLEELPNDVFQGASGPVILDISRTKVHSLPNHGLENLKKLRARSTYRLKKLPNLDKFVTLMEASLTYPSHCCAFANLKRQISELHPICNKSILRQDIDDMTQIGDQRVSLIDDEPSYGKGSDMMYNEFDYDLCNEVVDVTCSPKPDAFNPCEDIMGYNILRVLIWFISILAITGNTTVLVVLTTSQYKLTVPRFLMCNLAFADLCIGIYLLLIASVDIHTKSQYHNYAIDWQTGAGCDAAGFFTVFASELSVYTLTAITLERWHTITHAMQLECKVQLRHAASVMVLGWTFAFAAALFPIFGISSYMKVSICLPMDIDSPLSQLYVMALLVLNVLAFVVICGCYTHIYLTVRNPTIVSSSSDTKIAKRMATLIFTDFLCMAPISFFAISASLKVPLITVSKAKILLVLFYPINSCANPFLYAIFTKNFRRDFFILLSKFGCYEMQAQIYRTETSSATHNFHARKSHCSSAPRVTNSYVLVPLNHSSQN
Experimental: Example 11: Rat Granulosa EC50 FSH (Assay B)
The assay was performed pursuant to the teaching of Yanofsky et al. (2006) Allosteric activation of the follicle-stimulating hormone (FSH) receptor by selective, nonpeptide agonists. JBC 281(19): 13226-13233, which is incorporated by reference in the disclosure of the invention.

FSHR = target: T2, FSHR (Homo sapiens, UniProt P23945); test: EC50 of cyclic AMP production in CHO FSHR cells + EC20 FSH (Assay A); type: cell-based
T2 construct: expressed in transfected cells; host or cells: CHO (Cho-FSHR-LUC-1-1-43)
T2 sequence (P23945 18-695): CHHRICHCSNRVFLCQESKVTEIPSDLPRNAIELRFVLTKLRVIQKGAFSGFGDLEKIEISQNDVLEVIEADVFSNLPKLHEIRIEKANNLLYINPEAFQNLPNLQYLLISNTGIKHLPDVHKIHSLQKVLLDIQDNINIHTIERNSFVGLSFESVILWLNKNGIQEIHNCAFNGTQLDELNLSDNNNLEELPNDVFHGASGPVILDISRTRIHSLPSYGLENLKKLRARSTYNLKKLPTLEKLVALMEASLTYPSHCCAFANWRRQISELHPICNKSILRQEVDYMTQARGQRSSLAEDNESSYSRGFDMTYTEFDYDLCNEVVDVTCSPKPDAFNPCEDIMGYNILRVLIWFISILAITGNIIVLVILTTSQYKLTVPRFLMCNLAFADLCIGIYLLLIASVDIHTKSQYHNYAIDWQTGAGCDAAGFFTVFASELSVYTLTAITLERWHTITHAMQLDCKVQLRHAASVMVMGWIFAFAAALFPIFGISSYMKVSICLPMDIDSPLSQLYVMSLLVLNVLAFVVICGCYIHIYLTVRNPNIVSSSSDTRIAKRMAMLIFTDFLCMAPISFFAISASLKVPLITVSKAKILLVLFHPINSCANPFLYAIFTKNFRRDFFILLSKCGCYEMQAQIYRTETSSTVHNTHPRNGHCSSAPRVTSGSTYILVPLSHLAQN
T2 sequence (P01215 25-116 partner): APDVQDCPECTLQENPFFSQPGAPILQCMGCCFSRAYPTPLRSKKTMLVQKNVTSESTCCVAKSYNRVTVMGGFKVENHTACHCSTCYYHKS
T2 sequence (P01225 19-129 partner): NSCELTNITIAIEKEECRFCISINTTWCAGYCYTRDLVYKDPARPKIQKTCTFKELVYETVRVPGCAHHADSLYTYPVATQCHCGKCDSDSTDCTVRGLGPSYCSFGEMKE
Outline: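 cAMP HTRF ratio (665/620 nm) read after 1 h, 37 °C exposure of CHO-FSHR cells to compound in presence of EC20 FSH ([…]) and IBMX 200 μM. Responses given relative to FSH standard maximum; EC50 derived.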

[2] = CHO FSHR cells + EC20 FSH, Table 1, read-out: Assay A EC50 of cyclic AMP production
[3] = CHO FSHR cells + EC20 FSH, Table 2, read-out: Assay A EC50 of cyclic AMP production

SMILES | EC50 ([1]; Table 1) [nM] | EC50 (FSHR; [2]) [nM] | other results
Cc1ccccc1N1CCN(c2ccc(C(=O)NCCCN3CCCC3=O)cc2NC(=O)c2ccco2)CC1 [Compound 2] | 1000 to 10000 | < 100 | –
O=C(NCC1CCCO1)c1ccc(N2CCN(Cc3ccccc3)CC2)c(NC(=O)c2ccccc2Cl)c1 (stereo not drawn) [Compound 3] | – | 100 to 1000 | Assay B % at 5 μM ([1]; Table 1): 10%
Cc1ccccc1N1CCN(c2ccc(C(=O)NCCCN3CCCC3=O)cc2NC(=O)c2occc2C)CC1 [Compound 5] | 1000 to 10000 | – | –
Cc1ccc(C(=O)Nc2cc(C(=O)NCCCN3CCCC3=O)ccc2N2CCN(c3ccccc3C)CC2)o1 [Compound 6] | 100 to 1000 | – | –
Cc1ccccc1N1CCN(c2ccc(C(=O)NCCc3c[nH]cn3)cc2NC(=O)c2ccco2)CC1 [Compound 15] | 100 to 1000 | 100 to 1000 | –
Cc1ccccc1N1CCN(c2ccc(C(=O)NCCCN3CCCC3=O)cc2NC(=O)c2ccccc2)CC1 [Compound 27] | 1000 to 10000 | – | –
Cc1ccccc1N1CCN(c2ccc(C(=O)NCCCN3CCCC3=O)cc2NC(=O)c2ccc(F)cc2)CC1 [Compound 31] | 100 to 1000 | 100 to 1000 | –
Cc1ccc(C(=O)Nc2cc(C(=O)NCCCN3CCCC3=O)ccc2N2CCN(c3ccccc3C)CC2)cc1 [Compound 35] | 1000 to 10000 | 100 to 1000 | –
Cc1ccccc1N1CCN(c2ccc(C(=O)NCCCN3CCCC3=O)cc2NC(=O)c2ccccn2)CC1 [Compound 36] | 100 to 1000 | – | –
Cc1ccccc1N1CCN(c2ccc(C(=O)NCCCN3CCCC3=O)cc2NS(=O)(=O)c2cccc3cccnc23)CC1 [Compound 45] | 100 to 1000 | 100 to 1000 | –
Cc1ccccc1N1CCN(c2ccc(C(=O)NC3CCN(S(C)(=O)=O)CC3)cc2NC(=O)c2ccco2)CC1 [Compound 58, Furan-2-carboxylic acid [5-(1-methanesulfonyl-piperidin-4-ylcarbamoyl)-2-(4-o-tolyl-piperazin-1-yl)-phenyl]-amide] | – | 100 to 1000 | Assay B % at 5 μM ([1]; Table 1): 27%
Cc1ccccc1N1CCN(c2ccc(C(=O)NCCCN3CCCC3=O)cc2NC(=O)c2cscn2)CC1 [Compound 73] | 1000 to 10000 | 100 to 1000 | –
Cc1nc(C(=O)Nc2cc(C(=O)NCCCN3CCCC3=O)ccc2N2CCN(c3ccccc3C)CC2)cs1 [Compound 74] | 100 to 1000 | 100 to 1000 | –
Cc1nc(C(=O)Nc2cc(C(=O)NCCCN3CCCC3=O)ccc2N2CCN(c3ccccc3C)CC2)co1 [Compound 75] | > 10000 | – | –
CCc1nc(C(=O)Nc2cc(C(=O)NCCCN3CCCC3=O)ccc2N2CCN(c3ccccc3C)CC2)co1 [Compound 79] | 100 to 1000 | 100 to 1000 | –
Cc1ccccc1N1CCN(c2ccc(C(=O)NCCCN3CCCC3=O)cc2NC(=O)C2CC2)CC1 [Compound 84] | 100 to 1000 | – | –
Cc1ccccc1N1CCN(c2ccc(C(=O)NCCCN3CCCC3=O)cc2NC(=O)c2ccccc2F)CC1 [Compound 85] | 1000 to 10000 | 100 to 1000 | –
Cc1ccccc1N1CCN(c2ccc(C(=O)NCCCN3CCCC3=O)cc2NC(=O)c2coc(C3CC3)n2)CC1 [Compound 105] | 100 to 1000 | < 100 | –
Cc1ccccc1N1CCN(c2ccc(C(=O)NCCCN3CCCC3=O)cc2NC(=O)c2ccc(F)cn2)CC1 [Compound 128] | 100 to 1000 | 100 to 1000 | –
Cc1ccccc1N1CCN(c2ccc(C(=O)NCCCN3CCCC3=O)cc2NC(=O)c2ccc(Cl)o2)CC1 [Compound 135] | 100 to 1000 | 100 to 1000 | –
Cc1ccccc1N1CCN(c2ccc(C(=O)NCCCN3CCCC3=O)cc2NC(=O)c2ccc(Br)o2)CC1 [Compound 143, 5-Bromo-furan-2-carboxylic acid [5-[3-(2-oxo-pyrrolidin-1-yl)-propylcarbamoyl]-2-(4-o-tolyl-piperazin-1-yl)-phenyl]-amide] | 100 to 1000 | – | EC50 (FSHR): 100 to 1000 nM
Cc1ccccc1N1CCN(c2ccc(C(=O)NCCCN3C(=O)CCC3=O)cc2NC(=O)c2ccco2)CC1 [Compound 147] | 100 to 1000 | 100 to 1000 | –
Cc1ccccc1N1CCN(c2ccc(C(=O)NCCCN3C(=O)CSC3=O)cc2NC(=O)c2ccco2)CC1 [Compound 150] | 100 to 1000 | 100 to 1000 | –
Cc1ccccc1N1CCN(c2ccc(C(=O)NCCCc3cn[nH]c3)cc2NC(=O)c2ccco2)CC1 [Compound 152] | < 100 | 100 to 1000 | –

SMILES | EC50 ([1]; Table 1) [nM] | EC50 (FSHR; [2]) [nM] | other results
Cc1ccccc1N1CCN(c2ccc(C(=O)NCCCN3CCOC3=O)cc2NC(=O)c2ccco2)CC1 [Compound 155] | 1000 to 10000 | 100 to 1000 | –
Cc1ccccc1N1CCN(c2ccc(C(=O)NCCCC3CCOC3)cc2NC(=O)c2ccco2)CC1 (stereo not drawn) [Compound 158] | 100 to 1000 | – | –
C#Cc1ccc(C(=O)Nc2cc(C(=O)NCCCN3CCCC3=O)ccc2N2CCN(c3ccccc3C)CC2)o1 [Compound 176, 5-ethynyl-furan-2-carboxylic acid [5-[3-(2-oxo-pyrrolidin-1-yl)-propylcarbamoyl]-2-(4-o-tolyl-piperazin-1-yl)-phenyl]-amide] | 1000 to 10000 | 100 to 1000 | –
Cc1ccccc1N1CCN(c2ccc(C(=O)NCCc3cccc(C(N)=O)c3)cc2NC(=O)c2ccco2)CC1 [Compound 188] | 100 to 1000 | 100 to 1000 | –
Cc1ccccc1N1CCN(c2ccc(C(=O)NCc3cccc(C(N)=O)c3)cc2NC(=O)c2ccco2)CC1 [Compound 189] | 100 to 1000 | < 100 | –
Cc1csc(C(=O)Nc2cc(C(=O)NCCCN3CCCC3=O)ccc2N2CCN(c3ccccc3C)CC2)n1 [Compound 203] | 100 to 1000 | 100 to 1000 | –
Cc1ccccc1N1CCN(c2ccc(C(=O)NCCCN3CCCC3=O)cc2NC(=O)c2coc(Cl)n2)CC1 [Compound 207] | 100 to 1000 | 100 to 1000 | –
Cc1ccccc1N1CCN(c2ccc(C(=O)N3CCC4(CCOC4)CC3)cc2NC(=O)c2ccco2)CC1 [Compound 224] | 1000 to 10000 | – | activation at 5 µM (FSHR; 1 h, 5 μM, effect relative to maximum response of the FSH standard, Table 1): 10%
Cc1ccc(C(=O)Nc2cc(C(=O)NCCCCO)ccc2N2CCN(c3ccccc3C)CC2)o1 [Compound 241, 5-Methyl-furan-2-carboxylic acid [5-(4-hydroxy-butylcarbamoyl)-2-(4-o-tolyl-piperazin-1-yl)-phenyl]-amide] | – | 100 to 1000 | Assay B % at 5 μM ([1]; Table 1): 177%
Cc1ccc(C(=O)Nc2cc(C(=O)NCCCN3CCCC3=O)ccc2N2CCN(c3ccccc3C(F)(F)F)CC2)o1 [Compound 246] | 1000 to 10000 | 1000 to 10000 | –
Cc1ccccc1N1CCN(c2ccc(C(=O)NCc3cccc(C(N)=O)c3)cc2NC(=O)c2coc(C3CC3)n2)CC1 [Compound 304] | – | – | Assay B % at 1.25 μM ([1]; 1.25 μM, Table 2): 79%; EC50 (FSHR; [3]): < 100 nM
Cc1ccccc1N1CCN(c2ccc(C(=O)NCCc3cccc(C(N)=O)c3)cc2NC(=O)c2coc(C3CC3)n2)CC1 [Compound 307] | – | – | EC50 ([1]; Table 2): 1000 to 10000 nM; EC50 (FSHR; [3]): 100 to 1000 nM
Cc1ccccc1N1CCN(c2ccc(C(=O)N[C@H]3O[C@@H](CO)[C@H](O)[C@@H]3O)cc2NC(=O)c2coc(C3CC3)n2)CC1 [Compound 311] | – | – | EC50 ([1]; Table 2): 100 to 1000 nM; EC50 (FSHR; [3]): 100 to 1000 nM
Cc1ccccc1N1CCN(c2ccc(C(=O)NCc3cccc(CN(C)C)c3)cc2NC(=O)c2ccco2)CC1 [Compound 320] | – | – | EC50 ([1]; Table 2): 100 to 1000 nM; EC50 (FSHR; [3]): 100 to 1000 nM
Cc1cc(N2CCN(c3ccc(C(=O)NCCCN4CCCC4=O)cc3NC(=O)c3coc(C4CC4)n3)CC2)ncn1 [Compound 597] | – | – | EC50 (FSHR; [3]): > 10000 nM
Cc1nnc(N2CCN(c3ccc(C(=O)NCCCN4CCCC4=O)cc3NC(=O)c3coc(C4CC4)n3)CC2)s1 [Compound 598] | – | – | EC50 (FSHR; [3]): 1000 to 10000 nM
COc1cncc(N2CCN(c3ccc(C(=O)NCCCN4CCCC4=O)cc3NC(=O)c3coc(C4CC4)n3)CC2)c1 [Compound 599] | – | – | EC50 (FSHR; [3]): > 10000 nM
CN(C)c1ccc(N2CCN(c3ccc(C(=O)NCCCN4CCCC4=O)cc3NC(=O)c3coc(C4CC4)n3)CC2)nn1 [Compound 602] | – | – | EC50 (FSHR; [3]): 100 to 1000 nM
Cc1ccccc1N1CCN(c2ccc(C(=O)NCCCN3CCCC3=O)cc2NC(=O)c2coc(C3CC3)n2)CC1=O [Compound 605] | – | – | EC50 (FSHR; [3]): 1000 to 10000 nM
Cc1ccccc1N1CCN(c2ccc(C(=O)NCCNC3CS(=O)(=O)C[C@H]3O)cc2NC(=O)c2ccco2)CC1 (stereo partly drawn) [Compound 606] | – | – | EC50 (FSHR; [3]): 100 to 1000 nM
Cc1ccccc1N1CCN(c2ccc(C(=O)NCCNC3CS(=O)(=O)C[C@@H]3O)cc2NC(=O)c2ccco2)CC1 (stereo partly drawn) [Compound 607] | – | – | EC50 (FSHR; [3]): 100 to 1000 nM
Cc1ccccc1N1CCN(c2ccc(C(=O)NCCCN3CCC[C@@H]3C(N)=O)cc2NC(=O)c2ccco2)CC1 [Compound 608] | – | – | EC50 (FSHR; [3]): 100 to 1000 nM
Cc1ccccc1N1CCN(c2ccc(C(=O)NCCCN3CCC[C@H]3C(N)=O)cc2NC(=O)c2ccco2)CC1 [Compound 609] | – | – | EC50 (FSHR; [3]): 100 to 1000 nM
